Reference: patent US8088822B2, “Use of fenretinide or bioactive derivatives thereof and pharmaceutical compositions comprising the same” (priority 2008, dated 2012)

What was measured:
[1] = test system: HL60 cells; assay: Mitochondrial transmembrane potential (MTP) assay, Rh123/PI, HL60 cells; assay type: cell-based; details: serum-deprived quiescent versus proliferating HL60 cells, fenretinide
Experimental: HL60 cells were cultured in RPMI 1640 supplemented (i) with or (ii) without 10% fetal bovine serum to obtain proliferating and quiescent leukemia cells respectively. Serum-deprived quiescent leukemic cells and proliferating leukemic cells were then cultured in media containing 0.5% FBS, and treated with 1 μM and 2.5 μM fenretinide, and also with chemotherapeutics as controls, 20 μM idarubicin (IDA) and 5 μM cytarabine (Ara-C).
To examine the effects of fenretinide on proliferating and quiescent leukemia cells, HL60 cells were chosen as serum deprived quiescent leukemic cell model obtained when incubated in RPMI 1640 without serum for 48 h, with G0/G1 phase cells (being in quiescent state) accounting up to 59.9%. Serum-deprived quiescent leukemic cells and proliferating leukemic cells were then cultured in media containing 0.5% FBS, and treated with 1 μM and 2.5 μM fenretinide, and also with chemotherapeutics as controls, 20 μM idarubicin (IDA) and 5 μM cytarabine (Ara-C). […] Fenretinide induces intracellular production of ROS, lowers mitochondrial transmembrane potential (MTP), and eventually leads to apoptosis in a variety of malignancies. We measured MTP induced by fenretinide in proliferating and quiescent HL60 cells, as examined through rhodamine 123 and propidium iodide staining and followed by flow cytometry analysis. […] We further measured intracellular ROS abundance induced by fenretinide. […] After incubation with 1 μM and 2.5 μM fenretinide for 3 h, the ROS level of proliferating cells increased by 1.77 and 2.6 fold, respectively.

[2] = test system: NRF2 and HSF1; assay: Western blot of NRF2 and HSF1 in nuclear extracts of NB4 cells; assay type: cell-based; details: 1 μM fenretinide, within 6 hours
From the text: Transcriptome analysis of fenretinide-induced apoptosis in leukemia cell lines facilitated in-depth mining of biological information relevant to oxidative stress-mediated apoptosis, including the prediction of upstream transcription factors potentially involved in gene regulation. Of several dozens of transcriptional regulators predicted, stress-responsive transcription factors NRF2 and HSF1 are of particular interest for understanding how oxidative signaling is translated into downstream effects. NRF2 is known as a key regulator of intracellular redox balance, activating genes encoding antioxidative proteins under oxidative stress (Jaiswal, 2004; D'Autreaux and Toledano, 2007). Although HSF1 is commonly recognized as a heat-shock motivated transcription factor (Hayashida et al., 2006), it can also be activated by oxidative stress under certain circumstances (Ahn and Thiele, 2003). We therefore further investigated the temporal abundance and spatial localization of there two stress-responsive transcription factors during fenretinide-induced apoptosis in NB4 cells. […] The induction of NRF2 was extended beyond the 24 hour whereas HSF1 induction was terminated at this time point. […] Also, nuclear gathering of NRF2 was sustained beyond the 24 hour treatment whereas that of HSF1 was terminated. […]

[3] = test system: oxidative and ER stress genes; assay: Real-time quantitative RT-PCR of oxidative and ER stress genes in CML CD34+ cells; assay type: cell-based, human; details: fenretinide-treated CML CD34+ cells
From the text: Real-time quantitative RT-PCR was preformed on ABI7900 thermocycler detection system using SYBR Green I (Applied Biosystems, Foster City, Calif.).
Fenretinide preferentially targets more primitive leukemia stem and progenitor cells (Example 3 and Example 4), and mechanisms are involved in ROS-dependent apoptosis in a panel of leukemia cell lines. Additionally, the process of fenretinide-induced apoptosis is modulated by a large number of oxidative and ER stress genes (Example 5 and Example 6). It is of significant value to further evaluate whether fenretinide exerts similar mechanism on primitive leukemia stem and progenitor cells. Thus, we isolated CD34^+ cells from CML patients, which were subjected to real-time quantitative RT-PCR for oxidative and ER stress genes identified based on microarray analysis of fenretinide-treated K562 cells.

With `CC1=C(/C=C/C(C)=C/C=C/C(C)=C/C(=O)Nc2ccc(O)cc2)C(C)(C)CCC1` [fenretinide, N-(4-hydroxyphenyl)retinamide] the “mitochondrial transmembrane potential (MTP)” value [1] was “more significant reduced MTP”, the “protein levels of NRF2 and HSF1 in nuclear extracts” value [2] was “markedly elevated” and the “expression of genes involved in oxidative and ER stress” value [3] was “highly up-regulated”.
